Ends that are not written are not given here.
Experiments:
[1] = test system: vegetative yeast cells expressing myc-tagged Mre11; test: Immunofluorescence of MMS-induced Mre11-myc foci, vegetative nuclear spreads; type: cell-based, Saccharomyces cerevisiae; settings: 5% 1,6-hexanediol, 4–5 minutes, vegetative spheroplasts
Description: (§1) Following standard protocols, strains were patched on YPG plates, mated and streaked on YPD plates, and selected diploid colonies grown in liquid YPD at 30°C, 250 rpm, overnight. For meiotic synchronization, diploid cultures grown overnight in YPD were transferred to YPA (1% yeast extract, 2% peptone, 1% potassium acetate) at OD600 0.2 and grown for 12–14 hours at 30°C, 250 rpm. […]
(§2) Slides were blocked with 90% FBS, 1× PBS for 1 hour at room temperature in a humid chamber and then incubated with primary antibody (mouse mAb anti-myc, 1:200 (2276S, Cell Signaling Technology), rabbit anti-phospho H2A-S129, 1:200 (ab15083, abcam)) diluted in 3% BSA, 1× PBS in a humid chamber for 2 hours at 37°C or overnight at 4°C. Slides were washed three times with 1× PBS in a Coplin jar, were incubated with secondary antibody (goat anti-mouse IgG Alexa Fluor™ Plus 488, 1:200 (A32723, Invitrogen), donkey anti-rabbit IgG Alexa Fluor™ 546, 1:200 (A10040, Invitrogen) diluted in 3% BSA, 1× PBS in a humid chamber at 37°C for 1 hour. Slides were washed in the dark three times for 5 mins with 1× PBS, mounted with Vectashield containing DAPI (Vector Labs). Images were captured on a Zeiss Axio Observer with a 100×/1.4 NA oil immersion objective and were analyzed in ImageJ.

[2] = test system: meiotic yeast cells expressing myc-tagged Mre11; test: Immunofluorescence of Mre11-myc foci, meiotic nuclear spreads; type: cell-based, Saccharomyces cerevisiae; settings: 5% 1,6-hexanediol, brief exposure, 4 hours after transfer to SPM
Description: as §1, §2

mre11-ΔC49 mutant = test: MMS and CPT sensitivity assay, mre11-ΔC49; type: cell-based, Saccharomyces cerevisiae; settings: ten-fold serial dilutions on YPD plates, two days at 30°C
Description: (§3) Following standard protocols, strains were patched on YPG plates, mated and streaked on YPD plates, and selected diploid colonies grown in liquid YPD at 30°C, 250 rpm, overnight. For meiotic synchronization, diploid cultures grown overnight in YPD were transferred to YPA (1% yeast extract, 2% peptone, 1% potassium acetate) at OD600 0.2 and grown for 12–14 hours at 30°C, 250 rpm. Once the cultures reached OD600 between 1.2–1.6, cells were washed once with prewarmed sterile water and immediately transferred to sporulation medium supplemented with amino acids (320 μL amino acid complementation media for 100 mL of sporulation media (SPM)) and were kept shaking at 30°C, 250 rpm during the entire meiotic time-course. For MMS and CPT (Sigma) sensitivity assays, serial dilutions of overnight cultures were spotted on freshly prepared YPD-MMS or YPD-CPT plates containing indicated percentage of MMS or CPT, respectively. Plates were grown for two days at 30°C. For immunofluorescence of vegetatively growing cells, overnight cultures were refreshed by diluting to OD600 0.2 and grown for 3–4 hours to reach OD600 1.2–1.4 before subjecting to MMS or MMS followed by 5% 1,6-hexanediol treatment. For 5% 1,6-hexanediol treatment, cells were first converted to spheroplasts and then treated with 5% 1,6-hexanediol for 4–5 minutes. […]

mre11-ΔIDR mutants = test: MMS and CPT sensitivity assay, mre11-ΔIDR; type: cell-based, Saccharomyces cerevisiae; settings: ten-fold serial dilutions on YPD plates, two days at 30°C
Description: as §3

Mer2 [3] = test: Colocalization of Mre11 with Mer2 condensates in vitro; type: binding, Saccharomyces cerevisiae
Description: Proteins were diluted to a 10× stock of their appropriate working concentrations in their respective storage buffers. […] Unless specified otherwise, all reactions contained 400 nM ^Alexa488Mre11 or 100 nM ^eGFPMRX. A typical 20 μL binding reaction contained 2 μL protein of 10× stock of indicated concentration, 10 μL of 2× reaction buffer, and 150 ng of supercoiled pUC19 (5.7 nM). Typical reactions were assembled at 30°C for 30 mins with gentle mixing every 5 mins, unless mentioned otherwise. 5 μL was dropped onto a microscope slide and covered with a coverslip. All images were captured on a Zeiss Axio Observer with a 100×/1.4 NA oil immersion objective except for images provided in Figure 4G which were captured on Leica Stellaris DMI 8 confocal microscope with a 63x/1.2 NA water immersion objective. Images were analyzed with ImageJ using a custom-made script. In brief, 129.24 × 129.24-μm (2048 × 2048-pixel) images were thresholded to mean intensity of the background plus three times the standard deviation of the background. Masked foci were counted and the intensity inside the focus mask was integrated. Data points represent averages of at least 8–10 images per sample. Data were analyzed using Graphpad Prism 10.4.0.

pUC19 plasmid DNA [4] = test: In vitro condensation assay, MRX complex
Description: (§4) Proteins were diluted to a 10× stock of their appropriate working concentrations in their respective storage buffers. Reactions were performed in a buffer containing 25 mM HEPES-HCl (pH 7.5), 2 mM DTT, 1 mg/ml BSA, 5% glycerol, 5 mM MgCl2, 5% PEG-3350, and NaCl. Considering the salt contributed by the protein dilution buffer, final concentration of NaCl in a reaction was adjusted to 120 mM. Unless specified otherwise, all reactions contained 400 nM ^Alexa488Mre11 or 100 nM ^eGFPMRX. A typical 20 μL binding reaction contained 2 μL protein of 10× stock of indicated concentration, 10 μL of 2× reaction buffer, and 150 ng of supercoiled pUC19 (5.7 nM). Typical reactions were assembled at 30°C for 30 mins with gentle mixing every 5 mins, unless mentioned otherwise. 5 μL was dropped onto a microscope slide and covered with a coverslip. All images were captured on a Zeiss Axio Observer with a 100×/1.4 NA oil immersion objective except for images provided in Figure 4G which were captured on Leica Stellaris DMI 8 confocal microscope with a 63x/1.2 NA water immersion objective. Images were analyzed with ImageJ using a custom-made script. In brief, 129.24 × 129.24-μm (2048 × 2048-pixel) images were thresholded to mean intensity of the background plus three times the standard deviation of the background. Masked foci were counted and the intensity inside the focus mask was integrated. Data points represent averages of at least 8–10 images per sample. Data were analyzed using Graphpad Prism 10.4.0.

pUC19 plasmid DNA [5] = test: In vitro condensation assay, Mre11; settings: for Condensate formation: in the presence of plasmid DNA (pUC19), pH 7.5, 120 mM NaCl, 30°C, fluorescence microscopy
Description: as §4

pUC19 plasmid = test: Gel shift assay DNA binding; settings: 1 nM pUC19, pH 7.5, 100 mM NaCl, 5 mM EDTA, 30°C for 30 mins
Description: Proteins were diluted to their appropriate working concentrations in their respective storage buffers. […] Reactions were assembled at 30°C for 30 mins and resolved in a 1% agarose (SeaKem LE Agarose, Lonza) at 60 V for 120 mins at 4°C. Gels were stained with SYBR Gold Nucleic Acid Gel Stain (S11497, Invitrogen) for 40 mins and visualized with Amersham Typhoon biomolecular imager (Cytiva).

Mer2 [6] = test: Yeast two-hybrid Mer2-Mre11 interaction; type: binding, Saccharomyces cerevisiae; settings: SC-Leu-Ura-His + 25 mM 3-AT, 4–5 days at 30°C; at least four independent transformants
Description: Bait and prey plasmids were co-transformed into yWL365 using the standard ‘LiAc’-based transformation and plated on SC-Leu-Ura selective media. At least four independent transformants were tested for Mer2-Mre11 interaction by spotting a dilution series on SC-Leu- Ura-His + 25 mM 3-AT (3-amino-1,2,4-triazole) and growing for 4–5 days at 30°C.

OCCCCCCO [1,6-hexanediol] was tested, and the “Effect on MMS-induced Mre11 foci” value [1] was “readily dissolved MMS-induced foci, which instead coalesced into a few aggregates of high intensity” and the “Effect on meiotic Mre11 foci” value [2] was “disassembles these foci”.

In the case of CC[C@@]1(O)C(=O)OCc2c1cc1n(c2=O)Cc2cc3ccccc3nc2-1 [CPT, camptothecin], the “Sensitivity of mre11-ΔC49 mutant to treatment” value (mre11-ΔC49 mutant) is reported as “resistant” and the “Sensitivity of mre11-ΔIDR mutants relative to wild type” value (mre11-ΔIDR mutants) is reported as “as resistant to MMS or CPT as wild-type cells”.

With COS(C)(=O)=O [MMS, methylmethanesulfonate] the “Sensitivity of mre11-ΔC49 mutant to treatment” value (mre11-ΔC49 mutant) was “resistant” and the “Sensitivity of mre11-ΔIDR mutants relative to wild type” value (mre11-ΔIDR mutants) was “as resistant to MMS or CPT as wild-type cells”.

“C-terminus of Mre11: mScarlet-labelled Mre11-C49 (SYGLLNGRKTKTKTRPAASTKTASRRGKGRASRTPKTDILGSLLAKKRK; also: mScarlet tag; UniProt P32829 644-692, looked up, fragment)” was tested, and the “Condensate formation of the C-terminus without Mer2” value (Mer2 [3]; 800 nM mScarlet-Mre11-C49, control lacking eGFP-Mer2) was “does not form condensates independently” and the “Localization in the presence of Mer2 condensates” value (Mer2 [3]; 800 nM mScarlet-Mre11-C49 and 200 nM eGFP-Mer2, 30 minutes) was “forms a halo-like structure around Mer2 condensates”.

With “MRX: Mre11-Rad50-Xrs2 complex with an eGFP tag at the N-terminus of Mre11” the “Effect of crowding agents on condensation” value (pUC19 plasmid DNA [4]; 5% PEG-3350) was “promoted”, the “Role of the Mre11 C-terminal extremity in focus formation of MRX” value (pUC19 plasmid DNA [4]; eGFP-tagged MRX, ΔC49) was “required for efficient focus formation” and the Condensate formation (pUC19 plasmid DNA [4]; in the presence of plasmid DNA (pUC19), pH 7.5, 120 mM NaCl, 30°C, fluorescence microscopy) was “form large clusters visible by fluorescence microscopy”.

With “Mre11: Alexa488-labeled or eGFP-tagged budding yeast Mre11 nuclease” the “Effect of crowding agents on condensation” value (pUC19 plasmid DNA [5]; 5% PEG-3350) was “promoted”, the “Effect of divalent metal ions on condensation” value (pUC19 plasmid DNA [5]; divalent metal ions) was “enhanced” and the Condensate formation (pUC19 plasmid DNA [5]) was “form large clusters visible by fluorescence microscopy”. For the same molecule, the “Concentration above which foci intensity increases steeply” value (pUC19 plasmid DNA [5]; protein titration, pUC19 DNA) was “above 200 nM”, the “Species of reduced electrophoretic mobility at higher protein concentration” value (pUC19 plasmid) was “formed complexes of reduced mobility at higher protein concentration” and the “Colocalization with Mer2” value (Mer2 [3]; 200 nM Alexa594-Mer2 and eGFP-Mre11 assembled separately 10 minutes, then mixed 1:1 for 30 minutes) was “nearly absolute colocalization”.

B1: truncation of the terminal 15 amino acids of Mre11: Mre11 lacking the terminal 15 amino acids (pGAD-C1-Mre11-ΔC15) (protein)
chain: MDYPDPDTIRILITTDNHVGYNENDPITGDDSWKTFHEVMMLAKNNNVDMVVQSGDLFHVNKPSKKSLYQVLKTLRLCCMGDKPCELELLSDPSQVFHYDEFTNVNYEDPNFNISIPVFGISGNHDDASGDSLLCPMDILHATGLINHFGKVIESDKIKVVPLLFQKGSTKLALYGLAAVRDERLFRTFKDGGVTFEVPTMREGEWFNLMCVHQNHTGHTNTAFLPEQFLPDFLDMVIWGHEHECIPNLVHNPIKNFDVLQPGSSVATSLCEAEAQPKYVFILDIKYGEAPKMTPIPLETIRTFKMKSISLQDVPHLRPHDKDATSKYLIEQVEEMIRDANEETKQKLADDGEGDMVAELPKPLIRLRVDYSAPSNTQSPIDYQVENPRRFSNRFVGRVANGNNVVQFYKKRSPVTRSKKSGINGTSISDRDVEKLFSESGGELEVQTLVNDLLNKMQLSLLPEVGLNEAVKKFVDKDEKTALKEFISHEISNEVGILSTNEEFLRTDDAEEMKALIKQVKRANSVRPTPPKENDETNFAFNGNGLDSFRSSNREVRTGSPDITQSHVDNESRITHISQAESSKPTSKPKRVRTATKKKIPAFSDSTVISDAENELGDNNDAQDDVDIDENDIIMVSTDEEDASYGLLNGRKTKTKTRPAASTKTASRRGKGRASRT
modifications: left off: Gal4 activation domain (from the vector pGAD-C1), end not stated, kept
B1 was tested, and the “Interaction with Mer2 (yeast two-hybrid)” value (Mer2 [6]) was “abolished the interaction with Mer2”.

B2: Mre11^IDR: purified eGFP-tagged Mre11 IDR alone (protein, UniProt P32829 524-677, looked up, fragment)
chain: NSVRPTPPKENDETNFAFNGNGLDSFRSSNREVRTGSPDITQSHVDNESRITHISQAESSKPTSKPKRVRTATKKKIPAFSDSTVISDAENELGDNNDAQDDVDIDENDIIMVSTDEEDASYGLLNGRKTKTKTRPAASTKTASRRGKGRASRT
modifications: IDR eGFP tag
notes: purified eGFP-tagged Mre11 IDR alone
With B2 the Condensate formation (pUC19 plasmid DNA [5]) was “failed to form condensates” and the “DNA binding compared to the WT or Mre11-ΔIDR” value (pUC19 plasmid) was “reduced DNA binding”.

From paper PMC12393501, “Recruitment of Mre11 to recombination sites during meiosis” (Research Square, 2025)
